Assay results published in patent US7803982B2, “T1R3 transgenic animals, cells and related methods” (The Mount Sinai School of Medicine of New York University, priority 2001, dated 2010).
“Also recorded” adds a separate entry of the source. Structures can show the parent of a compound that is named as a salt.

Columns and labels:
Assay type in all cases: in vivo, mouse
[1] = test system: chorda tympani (CT) nerve of T1R3 knock-out and B6 wild-type mice; experiment: Whole-nerve recording from the chorda tympani (CT) nerve on lingual application of tastants; conditions: integrated response normalized to 100 mM NH4Cl
Method: (§1) The general linear model for repeated measurements analysis was used to compare the responses of T1R3 knock-out, B6 wild-type and 129 wild-type mice, with tastant concentration as dependant variables and genotype as fixed factor. For each compound, the responses from all concentrations were analyzed together, the response from each concentration being treated as a single value for the multiple measurement analysis. For behavioral tests, the F value is given for comparison of all genotypes. When a significant difference was found, the Tukey's test was used to determine which means differed. P values from the Tukey's test are given for T1R3 knock-out vs. B6 and for T1R3 knock-out vs. 129. When this analysis gave a borderline p value (0.05<p<0.06) each concentration was analyzed individually using the general linear model univariate analysis. For CT and GL nerve responses to glucose, maltose and sucralose the general linear model univariate analysis was used because only one concentration was tested for each of these tastants.
(§2) To examine the contributions of the gustatory nerves to the behavioral responses, we recorded from the chorda tympani (CT) branch of the facial nerve and the glossopharyngeal (GL) nerve of T1R3 knock-out and B6 wild-type mice. Recordings of electrical impulses from the chorda tympani (CT) and the glossopharyngeal (GL) nerves were performed according to known methods (Kawai, K. et al., Proc. Nat'l. Acad. Sci. USA, 97: 11044 (2000)). Male and female mice were used. Tastants were applied at a regular flow rate to the tongue for 30 seconds (CT) or 60 seconds (GL). Tastant concentrations are listed below:
(§3) At 5, 10, 15, 20 and 25 seconds (for the CT) and 5, 10, 20, 30 and 40 seconds (for the GL) after stimulus onset the integrated response magnitudes to each stimulus were measured in the chart records as magnitudes of pen deflection (mm) from baseline (before stimulation) and averaged. These averages were normalized to the response to NH4Cl and analyzed with the General Linear Model Multiple Measures of SPSS with tastant concentrations provided to subjects as “variables” and genotype differences between subjects as “factor”. The single concentrations (see FIG. 14) used for the sugars, sorbitol and saccharin were chosen to be in the midrange of CT responses of C57BL6 mice based on previous studies (Ninomiya, Y. and Imoto, T., Am J. Physiol., 268: R1019 (1995); Ninomiya, Y. et al., Am J. Physiol., 269: R930 (1995); Inoue, M. et al., Chem. Senses, 26: 915 (2001)).

[2] = test system: glossopharyngeal (GL) nerve of T1R3 knock-out and B6 wild-type mice; experiment: Whole-nerve recording from the glossopharyngeal (GL) nerve on lingual application of tastants; conditions: for GL responses of T1R3 knock-out mice compared with B6 wild-type mice: integrated response normalized to 100 mM NH4Cl
Method: as §1, §2, §3

[3] = test system: T1R3 knock-out, B6 wild-type and 129 wild-type mice; experiment: 48-hour two-bottle preference test (tastant versus water); conditions: for Behavioral (preference) response of T1R3 knock-out mice compared with B6 wild-type mice: 48 h two-bottle test, concentrations eliciting preference in B6 wild-type; for Response of T1R3 knock-out mice compared with 129 mice: two-bottle preference; for Preference responses compared among B6, 129 and T1R3 knock-out mice: B6 (taster), 129 (nontaster), T1R3 knock-out (null)
Method: Behavioral tests were conducted to examine the responses of T1R3 knock-out mice to tastants representing five taste qualities (sweet, bitter, salty, sour and umami). Mice of both sexes aged between 2 and 12 months were used. Age- and gender-matched mice were used in the three genotype groups, and littermates were used in the knock-out and B6 wild-type control groups. The two-bottle preference test consisted of giving the mice two bottles, one containing deionized water and the other a tastant solution, for 48 hours. The bottle positions were swapped after 24 hours to eliminate position effects. The ratio of tastant to total liquid consumed was measured and compared between groups using known methods (see, e.g., Wong, G. T. et al., Nature, 381: 796 (1996).
The tastants were presented at two-fold or three-fold ascending concentrations. The mice were allowed a 7-day recovery period with deionized water between tastants. The order of tastants for Group 1 was sucrose, quinine, SC45647, MSG, acesulfame K, sucralose and glucose. The order of tastants for Group 2 was NaCl, HCl and maltose. All tastants were of the highest purity available. MSG solutions also contained 10 micromolar amiloride to block the salty taste of the Na+. Tastant concentrations are listed below in order of presentation:
as §1

Row | SMILES | CT responses of T1R3 knock-out mice compared with B6 wild-type mice [1] | GL responses of T1R3 knock-out mice compared with B6 wild-type mice [2] | Behavioral (preference) response of T1R3 knock-out mice compared with B6 wild-type mice [3] | other results
1 | O=C1NS(=O)(=O)c2ccccc21 [saccharin] | near-zero |  |  | 
2 | N[C@@H](CCC(=O)O)C(=O)[O-].[Na+] [MSG, monosodium glutamate] | slightly diminished; also recorded: diminished only at the highest concentration tested | no differences | moderately diminished | Behavioral (preference) response of T1R3 knock-out mice compared with B6 wild-type mice ([3]; listed as monosodium glutamate (MSG)): reduced response; Preference of T1R3 knock-out mice compared with B6 wild-type mice ([3]; concentrations between 30 and 300 mM): reduced, but not abolished
3 | O=C[C@H](O)[C@@H](O)[C@H](O)[C@H](O)CO [Glucose, glucose] | not significantly diminished |  | reduced response; also recorded: slightly reduced | Response of T1R3 knock-out mice compared with 129 mice [3]: did not differ
4 | OC[C@H]1O[C@@](CO)(O[C@H]2O[C@H](CO)[C@@H](O)[C@H](O)[C@H]2O)[C@@H](O)[C@@H]1O [Sucrose, sucrose] | markedly diminished; also recorded: moderately or markedly diminished | Significant differences; also recorded: reduced | markedly diminished; also recorded: indifference | GL nerve responses of B6 wild-type mice compared with their CT responses [2]: much lower; Behavior of T1R3 knock-out mice at high tastant concentration ([3]; concentrations 5- to 10-fold those needed to elicit a strong preference in B6 wild-type mice): preferred; Response of T1R3 knock-out mice compared with 129 mice [3]: weaker
5 | C=C[C@H]1CN2CC[C@H]1C[C@H]2[C@H](O)c1ccnc2ccc(OC)cc12.C=C[C@H]1CN2CC[C@H]1C[C@H]2[C@H](O)c1ccnc2ccc(OC)cc12.O=S(=O)(O)O [Quinine, quinine sulfate] |  | unchanged |  | 
6 | C[C@H](NC(=NCC(=O)O)Nc1ccc(C#N)cc1)c1ccccc1 [SC45647] | markedly diminished; also recorded: near-zero | Significant differences; also recorded: reduced | indifference | GL nerve responses of B6 wild-type mice compared with their CT responses [2]: much lower; Preference responses compared among B6, 129 and T1R3 knock-out mice [3]: strongest in B6 mice, weakest in T1R3 knock-out mice, and intermediate in 129 mice
7 | OC[C@H]1O[C@H](O[C@H]2[C@H](O)[C@@H](O)C(O)O[C@@H]2CO)[C@H](O)[C@@H](O)[C@@H]1O (mixture of isomers) [Maltose, maltose] | significant differences; also recorded: diminished; also recorded: moderately or markedly diminished |  | no difference | Response of T1R3 knock-out mice compared with 129 mice [3]: did not differ
8 | Cl [HCl] |  | unchanged |  | 
9 | O=C(CO)[C@@H](O)[C@H](O)[C@H](O)CO [fructose] | diminished; also recorded: moderately or markedly diminished |  |  | 
10 | OC[C@@H](O)[C@@H](O)[C@H](O)[C@@H](O)CO [sorbitol] | diminished; also recorded: moderately or markedly diminished |  |  | 
11 | OC[C@H]1O[C@H](O[C@]2(CCl)O[C@H](CCl)[C@@H](O)[C@@H]2O)[C@H](O)[C@@H](O)[C@H]1Cl [Sucralose, sucralose] | near-zero |  | indifference | Preference responses compared among B6, 129 and T1R3 knock-out mice [3]: strongest in B6 mice, weakest in T1R3 knock-out mice, and intermediate in 129 mice
12 | [Cl-].[Na+] [NaCl] |  | unchanged |  | 
13 | N[C@H](Cc1c[nH]c2ccccc12)C(=O)O [D-tryptophan] | nearly abolished; also recorded: near-zero |  |  | 
14 | CC1=CC(=O)[N-]S(=O)(=O)O1.[K+] [AceK, acesulfame K] | markedly diminished; also recorded: near-zero | Significant differences; also recorded: reduced | indifference | GL nerve responses of B6 wild-type mice compared with their CT responses [2]: lower at concentrations below 100 mM, but higher at 300 mM; Concentration at which the reduced GL response of T1R3 knock-out mice was evident ([2]; T1R3 knock-out vs B6 wild-type): 30 to 300 mM; Preference responses compared among B6, 129 and T1R3 knock-out mice [3]: strongest in B6 mice, weakest in T1R3 knock-out mice, and intermediate in 129 mice
